Experimental data from US7125838B1, “Peptides containing N-substituted L-amino acids for preventing β-strand association” (Senexis Limited, priority 1999, dated 2006).
Non-standard residues stand in square brackets, D forms with d. Residues, ends and D or L forms follow the SMILES beside them. NMeR = CN[C@@H](CCCNC(=N)N)C(=O)O; NMeF = CN[C@@H](Cc1ccccc1)C(=O)O; NMeL = CN[C@@H](CC(C)C)C(=O)O

Key:
[1] = test system: Aβ peptide; experiment: Inhibition of Aβ peptide aggregation into β-sheets (method not described); type: biochemical
[2] = biological target: T1, synthetic peptide fragment corresponding to residues 11 to 25 of the Alzheimer's Aβ peptide (Homo sapiens, UniProt P05067); experiment: Thioflavin T fluorescence assay of Aβ peptide fragment aggregation into amyloid fibrils; type: biochemical
T1 construct: synthetic peptide fragment corresponding to residues 11 to 25 of the Alzheimer's Aβ peptide; host or cells: chemical synthesis (synthetic peptide)
Method: The capacity of Peptide X (SEQ ID NO:2) to inhibit the aggregation of a synthetic peptide fragment corresponding to residues 11 to 25 of the Alzheimer's Aβ peptide into amyloid fibrils was determined quantitatively using a standard assay based on the amyloid-dependent fluorescence of thioflavin T at 482 nm (Levine, 1993).
Peptide X (SEQ ID NO:2) was dissolved in water to a concentration of 10 mM (about 10 mg/ml). Alzheimer's Aβ peptide fragment, at a concentration of 50 μM (about 0.1 mg/ml) in 50 mM sodium acetate buffer (pH 5.0), was incubated at 25° C. in the absence or presence of Peptide X at concentrations ranging from 100 μM to 1 mM; the aggregation of the Aβ peptide fragment into insoluble β-fibres in the solutions was determined quantitatively after 20 minutes by measuring the fluorescence of […] added thioflavin T at 482 nm using an excitation wavelength of 440 nm.

[3] = Solubility in aqueous solutions; type: physicochemical; conditions: over a wide range of pH values, completely soluble
Description: The two positively charged arginine side chains assist the peptide to penetrate cell membranes and the blood-brain barrier by making electrostatic interactions with the negatively charged phosphate head groups of their constituent phospholipid molecules, resulting in the formation of inverted micelles which carry the peptide molecules across these membranes.

| inhibition at 100 µM ([2]; 100 μM Peptide X, 50 μM Aβ fragment, 50 mM sodium acetate pH 5.0, 25° C., 20 minutes, thioflavin T at 482 nm) | reduction in Alzheimer's Aβ peptide aggregation (FIG. 6) ([2]; Peptide X concentration of 100 μM) | solubility [3] | solubility ([3]; approximate equivalent of 10 mM) | Compound | inhibiting Aβ peptide aggregation into β-sheets [1] | disaggregation of preformed amyloid fibrils ([2]; Peptide X added to the Aβ peptide fragment after incubation) |
| --- | --- | --- | --- | --- | --- | --- |
| – | – | – | – | (L-arginine)-(L-lysine)-(L-valine)-(Nα-methyl-L-phenylalanine)-(L-tyrosine)-(L-threonine)-(L-tryptophan) [Arg-Lys-Val-mePhe-Tyr-Thr-Trp] | effective | – |
| > 70% | 70% | ≥ 10 mM | ≥ 10000 µg/mL | CC(=O)N[C@@H](CCCNC(=N)N)C(=O)N(C)[C@@H](CCCNC(=N)N)C(=O)N[C@@H](CC(C)C)C(=O)N(C)[C@@H](CC(C)C)C(=O)N[C@@H](Cc1ccccc1)C(=O)N(C)[C@@H](Cc1ccccc1)C(N)=O [Peptide X, Nα-acetyl-(L-arginine)-(Nα-methyl-L-arginine)-(L-leucine)-(Nα-methyl-L-leucine)-(L-phenylalanine)-(Nα-methyl-L-phenylalanine)-NH2] (Ac-R[NMeR]L[NMeL]F[NMeF]-NH2) | – | able to disaggregate preformed amyloid fibrils |
